According to patent EP2948433B1, “ATGLISTATIN AS LIPASE INHIBITOR” (Technische Universität Graz, priority 2013, dated 2014):

How the values were obtained:
WAT organ cultures = assay: Lipolysis of isolated WAT organ cultures; assay type: cell-based, C57BI6 mice; conditions: 8 h incubation
Protocol: • Figure 1. Structure of compounds 1 to 3 (reference) and compound 4 (atglistatin) and effect on ATGL activity. For determination of lipase activity, lysates of E. coli overexpressing recombinant strep-tagged ATGL and CGI-58 were incubated with a substrate containing radiolabeled [9,10-3H(N)]-triolein. Subsequently, FA were extracted and quantified by liquid scintillation counting. Lysates of cells expressing empty vector were set as blank. Inhibitors were solubilized in DMSO and added at the indicated concentrations. DMSO alone was used as negative control. (A) Structure and IC50 values of compounds 1-4. (B) Dose-dependent inhibition of ATGL in the presence of compound 3 and 4. […] (C) Lineweaver-Burk plots for kinetic analysis of ATGL inhibition. Experiments were performed at varying concentrations of substrate (0.05 - 3 mM) in presence and absence of compound 4 (Atglistatin). […] Data are presented as mean +/-S.D. of triplicate determinations. Data for compound 4 are representative for at least three independent experiments. • Figure 2. Selectivity of Atglistatin. Lipase activity of ATGL, HSL, lipoprotein lipase, and pancreatic lipase was determined using triolein as substrate. MGL activity was detected in the presence of rac-(1,3)-monooleoylglycerol as substrate. Inhibitors were solubilized in DMSO and added at the indicated concentrations. DMSO alone was used as negative control. (A) Dose-dependent inhibition of TG hydrolase activity in WAT lysates obtained from wild-type and ATGL-ko mice. (B) Inhibition of TG hydrolase activity in wild-type WAT lysates by Atglistatin (40 µM) and by the HSL inhibitor Hi 76-0079 (20 µM). (C) Effect of Atglistatin on murine MGL (purified from E. coli), and murine HSL (overexpressed in COS-7 lysates) activity. […] The release of FA (A) and glycerol (B) in the media was determined using commercial kits. […] At the indicated timepoints blood was taken retroorbitally and plasma parameters were measured using commercial kits. […] 8 h after gavage blood was taken retroorbitally and plasma parameters were measured using commercial kits. […]

[1] = Tissue TG content after oral gavage in fasted mice; assay type: in vivo, C57BI6 mice
Protocol: Animals. Mice (C57BI/6J) were maintained on a regular light-dark cycle (14 hours light, 10 hours dark) and kept on a standard laboratory chow diet (4.5% wt/wt fat, Sniff GMBH Germany). Maintenance, handling, and tissue collection from mice has been approved by the Austrian Federal Ministry of Science and Research Education and by the ethics committee of the University of Graz. Atglistatin was orally administrated by gavage of 200 µl olive oil containing Atglistatin.
Determination of tissue TG content. For tissue collection mice were euthanized by cervical dislocation. Subsequently, tissues were excised and snap frozen. After homogenisation in buffer A without DTT, TG was measured using TG reagent (Thermo Electron Corp., Victoria, Australia).
Table 1. Inhibition of lipolysis in vivo. C57BI6 mice were fasted overnight and received an oral gavage containing 200 µmol/kg Atglistatin dissolved in olive oil, or olive oil as control. After 8 h blood was taken retroorbitally and mice were sacrificed. (A) Plasma parameters were measured using commercial kits. (B) Tissue triglyceride (TG) and protein levels were determined in whole tissue lysates and are presented as TG (nmol) per protein (mg). Data are presented as mean + S.D. (*, p < 0.05 **, p < 0.01; ***, p < 0.001). n = 7

[2] = system: TG hydrolase activity of wild-type WAT; assay: TG hydrolase activity in WAT lysates of wild-type mice; assay type: biochemical; conditions: up to, at a concentration of 40 µM
Protocol: For determination of lipase activity, lysates of E. coli overexpressing recombinant strep-tagged ATGL and CGI-58 were incubated with a substrate containing radiolabeled [9,10-3H(N)]-triolein. Subsequently, FA were extracted and quantified by liquid scintillation counting. Lysates of cells expressing empty vector were set as blank. Inhibitors were solubilized in DMSO and added at the indicated concentrations. DMSO alone was used as negative control. […] Data are presented as mean +/-S.D. of triplicate determinations. […] Lipase activity of ATGL, HSL, lipoprotein lipase, and pancreatic lipase was determined using triolein as substrate. MGL activity was detected in the presence of rac-(1,3)-monooleoylglycerol as substrate. Inhibitors were solubilized in DMSO and added at the indicated concentrations. DMSO alone was used as negative control. (A) Dose-dependent inhibition of TG hydrolase activity in WAT lysates obtained from wild-type and ATGL-ko mice.

purified bovine LPL = target: T1, purified bovine LPL (Bos taurus, UniProt P11151); assay: Lipoprotein lipase activity, purified enzyme, triolein substrate; assay type: biochemical; conditions: Fig. 2D
T1 construct: purchased Sigma
T1 sequence (P11151 29-478): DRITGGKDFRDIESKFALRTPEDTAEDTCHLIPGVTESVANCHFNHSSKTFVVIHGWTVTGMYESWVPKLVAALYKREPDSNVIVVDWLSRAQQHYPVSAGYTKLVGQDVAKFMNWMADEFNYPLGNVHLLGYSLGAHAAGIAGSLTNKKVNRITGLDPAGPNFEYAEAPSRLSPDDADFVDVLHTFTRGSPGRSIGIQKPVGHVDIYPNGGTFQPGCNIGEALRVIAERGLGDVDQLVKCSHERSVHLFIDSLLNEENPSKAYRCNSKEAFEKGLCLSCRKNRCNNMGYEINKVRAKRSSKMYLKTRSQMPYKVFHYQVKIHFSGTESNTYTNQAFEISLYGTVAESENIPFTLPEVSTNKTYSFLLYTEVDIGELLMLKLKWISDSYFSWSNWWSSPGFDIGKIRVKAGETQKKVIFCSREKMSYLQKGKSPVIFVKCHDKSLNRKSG
Protocol: • Figure 1. Structure of compounds 1 to 3 (reference) and compound 4 (atglistatin) and effect on ATGL activity. For determination of lipase activity, lysates of E. coli overexpressing recombinant strep-tagged ATGL and CGI-58 were incubated with a substrate containing radiolabeled [9,10-3H(N)]-triolein. Subsequently, FA were extracted and quantified by liquid scintillation counting. Lysates of cells expressing empty vector were set as blank. Inhibitors were solubilized in DMSO and added at the indicated concentrations. DMSO alone was used as negative control. (A) Structure and IC50 values of compounds 1-4. (B) Dose-dependent inhibition of ATGL in the presence of compound 3 and 4. […] (C) Lineweaver-Burk plots for kinetic analysis of ATGL inhibition. Experiments were performed at varying concentrations of substrate (0.05 - 3 mM) in presence and absence of compound 4 (Atglistatin). […] Lipase activity of ATGL, HSL, lipoprotein lipase, and pancreatic lipase was determined using triolein as substrate. MGL activity was detected in the presence of rac-(1,3)-monooleoylglycerol as substrate. […] The release of FA (A) and glycerol (B) in the media was determined using commercial kits. […] At the indicated timepoints blood was taken retroorbitally and plasma parameters were measured using commercial kits. […] 8 h after gavage blood was taken retroorbitally and plasma parameters were measured using commercial kits. […]

CN(C)C(=O)Nc1cccc(-c2ccc(N(C)C)cc2)c1 [Atglistatin, atglistatin]
basal lipolysis (WAT organ cultures; dose dependent (0-50 µM)): reduced basal lipolysis
reduction of forskolin-stimulated FA release (WAT organ cultures; up to, 10 µM forskolin): up to 72%
reduction of forskolin-stimulated glycerol release (WAT organ cultures; up to, 10 µM forskolin): ≤ 66%
Tissue triglyceride (TG), skeletal muscle ([1]; 200 µmol/kg oral gavage, after 8 h, mean ± S.D., n = 7): 99 ± 13 nmol TG /mg protein
accumulation of TG in cardiac muscle and other tissues ([1]; mouse, in vivo): did not promote the accumulation of TG
inhibition of TG hydrolase activity of wild-type WAT [2]: up to 78%
effect on lipoprotein lipase (purified bovine LPL): only minor effects
